According to PMC10693528, “A high-throughput metabolomics in vitro platform for the characterization of hepatotoxicity” (Cell Biology and Toxicology, 2023):

System: HepG2 cells
Assay: LC-MS/MS targeted intracellular metabolomics
Format: cell-based, human
Conditions: 48 h
Procedure, shortened: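 Metabolites extracted in-plate from HepG2 cells with 80% isopropanol and analysed by RP and HILIC LC-MS/MS in positive and negative mode. Data normalised to lyophilised untreated HepG2 reference samples and to each sample's median across 221 metabolites. Treated versus control compared by Welch t test on log-transformed data.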

[1] = Suppl Fig 10, C3 (C2 for Aroclor)
[2] = Suppl Fig 10, C3 (C2 for Aroclor), first of two lines with this name
[3] = Suppl Fig 10, C3 (C2 for Aroclor), second of two lines with this name
[4] = Suppl Fig 9, C3 (EC15 ATP), Bezafibrate lines = Plates 1-6 in order

Compound: CCC(CC)Nc1c([N+](=O)[O-])cc(C)c(C)c1[N+](=O)[O-] [Pendimethalin]
- Carnitine level vs controls [1]: 0.76
- Ceramide (d16:1.C24:0) level vs controls [1]: 1.35
- Ceramide (d17:1.C24:0) level vs controls [1]: 1.40
- Ceramide (d18:1.C20:0) level vs controls [1]: 0.81
- Ceramide (d18:1.C22:1) level vs controls [1]: 0.43
- Ceramide (d18:1.C24:1) level vs controls [1]: 0.54
- Ceramide (d18:2.C16:0) level vs controls [1]: 2.06
- Ceramide (d18:2.C23:0) level vs controls [1]: 1.14
- Ceramide (d18:2.C24:0) level vs controls [1]: 1.87
- Ceramide (d18:2.C24:1) level vs controls [1]: 1.17
- Choline plasmalogen (C36:4) level vs controls [1]: 0.63
- Choline plasmalogen (C36:5) level vs controls [1]: 0.68
- Cysteinylglycine level vs controls [1]: 1.14
- Flavin adenine dinucleotide (FAD) level vs controls [1]: 1.14
- Glutathione (GSH) level vs controls [1]: 1.12
- Hexanoylcarnitine level vs controls [1]: 0.69
- Isopentenyl pyrophosphate (IPP) level vs controls [1]: 2.79
- Lysophosphatidylcholine (C14:0) level vs controls [1]: 2.28
- Lysophosphatidylcholine (C16:0) level vs controls [1]: 2.37
- Lysophosphatidylcholine (C20:0) level vs controls [1]: 2.37
- Lysophosphatidylcholine (C20:1) level vs controls [1]: 1.47
- Lysophosphatidylcholine (C20:4) level vs controls [1]: 2.32
- Lysophosphatidylcholine (C22:0) level vs controls [1]: 3.44
- Lysophosphatidylcholine (C24:0) level vs controls [1]: 4.49
- Lysophosphatidylcholine (C24:1) level vs controls [1]: 3.59
- Lysophosphatidylethanolamine (C16:0) level vs controls [1]: 1.81
- Lysophosphatidylethanolamine (C18:0) level vs controls [1]: 2.07
- N-Acetylglucosamine level vs controls [1]: 0.93
- N-Acetylserine level vs controls [1]: 1.47
- O-Acetylcarnitine level vs controls [1]: 1.02
- Pantothenic acid level vs controls [1]: 0.78
- Phosphatidylcholine (C32:0) level vs controls [1]: 1.93
- Phosphatidylcholine (C34:0) level vs controls [1]: 1.83
- Phosphatidylcholine (C34:2) level vs controls [1]: 0.64
- Phosphatidylcholine (C34:3) level vs controls [1]: 0.79
- Phosphatidylcholine (C36:0) level vs controls [1]: 2.49
- Phosphatidylcholine (C36:1) level vs controls [1]: 0.93
- Phosphatidylcholine (C36:2) level vs controls [1]: 0.52
- Phosphatidylcholine (C36:3) level vs controls [1]: 0.73
- Phosphatidylcholine (C36:4) level vs controls [1]: 1.10
- Phosphatidylcholine (C38:6) level vs controls [1]: 1.15
- Phosphatidylethanolamine (C32:0) level vs controls [1]: 3.04
- Phosphatidylethanolamine (C34:0) level vs controls [1]: 2.78
- Phosphatidylethanolamine (C34:1) level vs controls [1]: 1.48
- Phosphatidylethanolamine (C34:2) level vs controls [1]: 0.68
- Phosphatidylethanolamine (C36:0) level vs controls [1]: 3.98
- Phosphatidylethanolamine (C36:1) level vs controls [1]: 1.46
- Phosphatidylethanolamine (C36:3) level vs controls [1]: 0.82
- Phosphatidylethanolamine (C38:5) level vs controls [1]: 0.79
- Phosphatidylethanolamine (C40:7) level vs controls [1]: 0.57
- Proline level vs controls [1]: 0.89
- Propionylcarnitine level vs controls [1]: 0.65
- Sphingomyelin (d32:1) level vs controls [1]: 0.92
- Sphingomyelin (d35:1) level vs controls [1]: 1.07
- Sphingomyelin (d38:2) level vs controls [1]: 0.76
- Sphingomyelin (d40:2) level vs controls [1]: 0.93
- Sphingomyelin (d41:2) level vs controls [1]: 0.79
- Sphingomyelin (d42:2) level vs controls [1]: 0.73
- Triacylglycerol (C30:0.C18:1) level vs controls [1]: 0.81
- Triacylglycerol (C32:0.C16:1) level vs controls [1]: 0.66
- Triacylglycerol (C32:1.C16:1) level vs controls [1]: 0.58
- Triacylglycerol (C34:0.C18:1) level vs controls [1]: 0.96
- Triacylglycerol (C34:1.C16:0) level vs controls [1]: 0.79
- Triacylglycerol (C34:1.C18:1) level vs controls [1]: 0.71
- Triacylglycerol (C34:2.C18:0) level vs controls [1]: 0.87
- Triacylglycerol (C34:2.C18:1) level vs controls [1]: 0.44
- Triacylglycerol (C36:1.C18:0) level vs controls [1]: 0.86
- Triacylglycerol (C36:1.C18:1) level vs controls [1]: 0.65
- Triacylglycerol (C36:1.C18:2) level vs controls [1]: 0.83
- Triacylglycerol (C36:2.C18:1) level vs controls [1]: 0.49
- Triacylglycerol (C36:3.C18:1) level vs controls [1]: 0.78
- Tyrosine level vs controls [1]: 1.14
- myo-Inositol-2-phosphate level vs controls [1]: 0.76
- Sphingomyelin (d34:2) level vs controls [2]: 1.11
- Sphingomyelin (d34:2) level vs controls [3]: 1.27

Compound: Cc1cccc(Nc2cc(Cl)nc(SCC(=O)O)n2)c1C [Wy-14643]
- 2'-Deoxycytidine level vs controls [4]: 0.75
- 5-Hydroxytryptophan level vs controls [4]: 0.85
- Carnitine level vs controls [4]: 0.99
- Ceramide (d18:1.C20:0) level vs controls [4]: 0.66
- Ceramide (d18:1.C24:1) level vs controls [4]: 0.92
- Ceramide (d18:1.C24:2) level vs controls [4]: 0.71
- Ceramide (d18:2.C24:1) level vs controls [4]: 0.97
- Choline plasmalogen (C36:4) level vs controls [4]: 1.00
- Choline plasmalogen (C36:5) level vs controls [4]: 1.03
- Creatine level vs controls [4]: 0.85
- Glycerol-3-phosphate level vs controls [4]: 0.72
- Hexanoylcarnitine level vs controls [4]: 0.93
- Ketoleucine level vs controls [4]: 0.86
- Lysophosphatidylcholine (C14:0) level vs controls [4]: 1.51
- Lysophosphatidylcholine (C16:0) level vs controls [4]: 1.26
- Lysophosphatidylcholine (C16:1) level vs controls [4]: 1.06
- Lysophosphatidylcholine (C20:4) level vs controls [4]: 1.28
- Lysophosphatidylcholine (C24:0) level vs controls [4]: 1.50
- Lysophosphatidylcholine (C24:1) level vs controls [4]: 1.20
- Lysophosphatidylethanolamine (C16:0) level vs controls [4]: 1.18
- Lysophosphatidylethanolamine (C18:0) level vs controls [4]: 1.26
- Lysophosphatidylethanolamine (C18:1) level vs controls [4]: 1.12
- N-Acetylaspartate level vs controls [4]: 1.22
- Pantothenic acid level vs controls [4]: 0.74
- Phosphatidylcholine (C32:0) level vs controls [4]: 0.81
- Phosphatidylcholine (C34:1) level vs controls [4]: 0.91
- Phosphatidylcholine (C34:3) level vs controls [4]: 1.04
- Phosphatidylcholine (C36:1) level vs controls [4]: 0.96
- Phosphatidylcholine (C36:2) level vs controls [4]: 0.86
- Phosphatidylcholine (C36:3) level vs controls [4]: 0.93
- Phosphatidylcholine (C36:4) level vs controls [4]: 0.98
- Phosphatidylcholine (C36:5) level vs controls [4]: 0.92
- Phosphatidylethanolamine (C36:3) level vs controls [4]: 0.82
- Phosphatidylethanolamine (C38:3) level vs controls [4]: 0.92
- Phosphatidylethanolamine (C38:5) level vs controls [4]: 0.89
- Phosphatidylethanolamine (C38:6) level vs controls [4]: 0.96
- Phosphatidylethanolamine (C40:7) level vs controls [4]: 0.92
- Phosphocholine level vs controls [4]: 0.91
- Propionylcarnitine level vs controls [4]: 0.97
- S-Adenosylhomocysteine level vs controls [4]: 1.03
- Sphingomyelin (d32:2) level vs controls [4]: 0.79
- Sphingomyelin (d33:1) level vs controls [4]: 1.13
- Sphingomyelin (d34:0) level vs controls [4]: 1.04
- Sphingomyelin (d35:1) level vs controls [4]: 0.99
- Sphingomyelin (d36:1) level vs controls [4]: 0.90
- Sphingomyelin (d36:2) level vs controls [4]: 0.97
- Sphingomyelin (d37:1) level vs controls [4]: 0.81
- Sphingomyelin (d38:1) level vs controls [4]: 0.84
- Sphingomyelin (d38:2) level vs controls [4]: 0.74
- Sphingomyelin (d39:1) level vs controls [4]: 0.94
- Sphingomyelin (d40:2) level vs controls [4]: 0.81
- Sphingomyelin (d41:2) level vs controls [4]: 0.79
- Sphingomyelin (d42:2) level vs controls [4]: 0.79
- Taurine level vs controls [4]: 0.97
- Triacylglycerol (C34:1.C18:3) level vs controls [4]: 1.01
- Triacylglycerol (C34:2.C18:0) level vs controls [4]: 1.14
- Triacylglycerol (C34:2.C18:1) level vs controls [4]: 1.01
- Triacylglycerol (C36:4.C16:0) level vs controls [4]: 1.09
- Triacylglycerol (C36:4.C18:0) level vs controls [4]: 1.18

Compound: O=c1cc(-c2ccccc2)oc2ccc3ccccc3c12 [β-naphthoflavone]
- Carnitine level vs controls [1]: 0.88
- Ceramide (d16:1.C24:0) level vs controls [1]: 1.20
- Ceramide (d17:1.C24:0) level vs controls [1]: 1.24
- Ceramide (d18:1.C20:0) level vs controls [1]: 0.73
- Ceramide (d18:1.C22:1) level vs controls [1]: 0.65
- Ceramide (d18:1.C24:1) level vs controls [1]: 0.64
- Ceramide (d18:2.C16:0) level vs controls [1]: 1.48
- Ceramide (d18:2.C23:0) level vs controls [1]: 1.56
- Ceramide (d18:2.C24:0) level vs controls [1]: 1.41
- Ceramide (d18:2.C24:1) level vs controls [1]: 1.23
- Choline plasmalogen (C36:4) level vs controls [1]: 0.82
- Choline plasmalogen (C36:5) level vs controls [1]: 0.84
- Cysteinylglycine level vs controls [1]: 3.16
- Flavin adenine dinucleotide (FAD) level vs controls [1]: 1.63
- Glutathione (GSH) level vs controls [1]: 2.59
- Hexanoylcarnitine level vs controls [1]: 1.02
- Isopentenyl pyrophosphate (IPP) level vs controls [1]: 2.43
- Lysophosphatidylcholine (C14:0) level vs controls [1]: 1.48
- Lysophosphatidylcholine (C16:0) level vs controls [1]: 2.15
- Lysophosphatidylcholine (C20:0) level vs controls [1]: 2.34
- Lysophosphatidylcholine (C20:1) level vs controls [1]: 2.23
- Lysophosphatidylcholine (C20:4) level vs controls [1]: 1.68
- Lysophosphatidylcholine (C22:0) level vs controls [1]: 1.99
- Lysophosphatidylcholine (C24:0) level vs controls [1]: 2.67
- Lysophosphatidylcholine (C24:1) level vs controls [1]: 2.34
- Lysophosphatidylethanolamine (C16:0) level vs controls [1]: 1.77
- Lysophosphatidylethanolamine (C18:0) level vs controls [1]: 2.25
- N-Acetylglucosamine level vs controls [1]: 0.79
- N-Acetylserine level vs controls [1]: 1.03
- O-Acetylcarnitine level vs controls [1]: 0.87
- Pantothenic acid level vs controls [1]: 0.96
- Phosphatidylcholine (C32:0) level vs controls [1]: 1.16
- Phosphatidylcholine (C34:0) level vs controls [1]: 1.39
- Phosphatidylcholine (C34:2) level vs controls [1]: 0.77
- Phosphatidylcholine (C34:3) level vs controls [1]: 0.60
- Phosphatidylcholine (C36:0) level vs controls [1]: 1.62
- Phosphatidylcholine (C36:1) level vs controls [1]: 1.21
- Phosphatidylcholine (C36:2) level vs controls [1]: 0.80
- Phosphatidylcholine (C36:3) level vs controls [1]: 0.87
- Phosphatidylcholine (C36:4) level vs controls [1]: 1.08
- Phosphatidylcholine (C38:6) level vs controls [1]: 1.09
- Phosphatidylethanolamine (C32:0) level vs controls [1]: 1.63
- Phosphatidylethanolamine (C34:0) level vs controls [1]: 1.79
- Phosphatidylethanolamine (C34:1) level vs controls [1]: 1.38
- Phosphatidylethanolamine (C34:2) level vs controls [1]: 0.93
- Phosphatidylethanolamine (C36:0) level vs controls [1]: 2.10
- Phosphatidylethanolamine (C36:1) level vs controls [1]: 1.81
- Phosphatidylethanolamine (C36:3) level vs controls [1]: 0.84
- Phosphatidylethanolamine (C38:5) level vs controls [1]: 0.93
- Phosphatidylethanolamine (C40:7) level vs controls [1]: 0.79
- Proline level vs controls [1]: 0.64
- Propionylcarnitine level vs controls [1]: 1.03
- Sphingomyelin (d32:1) level vs controls [1]: 0.84
- Sphingomyelin (d35:1) level vs controls [1]: 1.06
- Sphingomyelin (d38:2) level vs controls [1]: 0.94
- Sphingomyelin (d40:2) level vs controls [1]: 0.77
- Sphingomyelin (d41:2) level vs controls [1]: 0.85
- Sphingomyelin (d42:2) level vs controls [1]: 0.74
- Triacylglycerol (C30:0.C18:1) level vs controls [1]: 0.36
- Triacylglycerol (C32:0.C16:1) level vs controls [1]: 0.41
- Triacylglycerol (C32:1.C16:1) level vs controls [1]: 0.26
- Triacylglycerol (C34:0.C18:1) level vs controls [1]: 0.47
- Triacylglycerol (C34:1.C16:0) level vs controls [1]: 0.39
- Triacylglycerol (C34:1.C18:1) level vs controls [1]: 0.47
- Triacylglycerol (C34:2.C18:0) level vs controls [1]: 0.40
- Triacylglycerol (C34:2.C18:1) level vs controls [1]: 0.24
- Triacylglycerol (C36:1.C18:0) level vs controls [1]: 0.46
- Triacylglycerol (C36:1.C18:1) level vs controls [1]: 0.35
- Triacylglycerol (C36:1.C18:2) level vs controls [1]: 0.46
- Triacylglycerol (C36:2.C18:1) level vs controls [1]: 0.41
- Triacylglycerol (C36:3.C18:1) level vs controls [1]: 0.38
- Tyrosine level vs controls [1]: 1.14
- myo-Inositol-2-phosphate level vs controls [1]: 0.65
- Sphingomyelin (d34:2) level vs controls [2]: 1.05
- Sphingomyelin (d34:2) level vs controls [3]: 1.07
